According to US8357636B2, “Alkoxylated alkylamines/alkyl ether amines with peaked distribution” (Akzo Nobel N.V., priority 2004, dated 2013):

Assay: Effect of EO adduct added to 62% K-glyphosate solution (clear or hazy)
Assay type: physicochemical
Details: ~25% added into a 62% K-glyphosate solution
Excerpt: Therefore, even a slight reduction in concentration of the higher EO adduct could improve the cloud point of glyphosate formulation dramatically.

**Q.** With OCCOCCO [diethylene glycol] as the molecule, how does the “Appearance of solution after addition” value read?
**A.** The value was “clear solution”.
